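Growth conditions: 96-well plates. Treatment: test compound, 48 hours, 5 concentrations. Analysis: linear interpolation between bracketing concentrations; unreached endpoints set to highest concentration. TGI: total growth inhibition.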
What was measured:
Test in all cases: NCI anticancer screen, dose series, 48 h
HOP-92 NSCLC = test system: HOP-92 NSCLC
BT-549 breast = test system: BT-549 breast
MALME-3M melanoma = test system: MALME-3M melanoma
A498 renal = test system: A498 renal
SNB-75 CNS = test system: SNB-75 CNS
SK-MEL-5 melanoma = test system: SK-MEL-5 melanoma
MDA-MB-435 = test system: MDA-MB-435
OVCAR-4 ovarian = test system: OVCAR-4 ovarian
NCI-H522 lung = test system: NCI-H522 lung
RXF 393 renal = test system: RXF 393 renal

Compound	TGI (HOP-92 NSCLC) [µM]	TGI (BT-549 breast) [µM]	TGI (MALME-3M melanoma) [µM]	TGI (A498 renal) [µM]	TGI (SNB-75 CNS) [µM]	TGI (SK-MEL-5 melanoma) [µM]	TGI (MDA-MB-435) [µM]	TGI (OVCAR-4 ovarian) [µM]	TGI (NCI-H522 lung) [µM]	TGI (RXF 393 renal) [µM]
CN(C)CCN1C(=O)N(CCN(C)C)c2c3cc(O)ccc3nc3c([N+](=O)[O-])ccc1c23	37.3	40.6	29.6	29.6	44.9	26.8	32.9	28.4	33.3	–
O=C(/C=C/CC(O)(c1ccccc1)c1ccccc1)Nc1ccccc1Cl	> 100	–	> 100	> 100	> 100	> 100	–	> 100	> 100	–
C=C1C[C@@H]2CC[C@@]34CC5O[C@H]6C(O[C@H]7CC[C@H](CC(=O)O[C@@H]8[C@@H](C)[C@@H]9O[C@@H]%10C[C@]%11(C[C@@H]%12O[C@]%13(C[C@H](C)[C@@H]%14O[C@@H]%15CC(C(COC(C)=O)OC(C)=O)O[C@@H]%15C[C@@H]%14O%13)C[C@H](C)[C@@H]%12O%11)O[C@@H]%10C[C@@H]9O[C@H]8CC8O[C@@H](CC[C@@H]1O2)C[C@@H](C)C8(O)CO)O[C@@H]7[C@@H]6O3)[C@H]5O4 (stereo not given in full)	> 1	0.751	–	> 1	> 1	> 1	> 0.879	> 1	0.417	–
CC1OC2OC3C(OCC(O)C3O)OC(=O)[C@]34CCC(C)(C)CC3C3=CCC5[C@@]6(C)C[C@H](O)[C@H](OC7OC(CO)C(O)C(O)C7OC7OC(COC(=O)CC(C)(O)CC(=O)OC1C(OC1OC(CO)C(O)C(O)C1O)C2O)C(O)C(O)C7O)[C@@](C)(CO)C6CC[C@@]5(C)[C@]3(C)CC4 (stereo not given in full)	4.31	19.3	6.96	–	6.79	0.272	4.71	16.1	5.89	–
CC(=O)Oc1ccc2c(c1)O/C(=C\c1ccc(O)cc1)C2=O	–	> 100	–	–	> 100	> 100	> 100	> 100	> 100	> 100
COc1ccc(C(=O)/C=C/c2ccc(OCCCCCCCCCCOc3ccc(/C=C/C(=O)c4ccc(OC)c(OC)c4)cc3)cc2)c(OC)c1	–	–	–	–	> 100	> 100	> 100	> 100	–	> 100
Nc1cc2nc(-c3ccccc3)cn2cn1	–	> 100	70	80.3	> 100	> 100	> 100	> 100	–	> 100
Oc1ccc(C[C@@H]2CN[C@H](Cc3ccc(O)c(Br)c3)CN2)cc1	> 100	> 100	–	> 100	> 100	–	> 100	> 100	> 100	> 100
O=C(O[C@@H](/C=C/c1ccccc1)P1(=O)N(Cc2ccccc2)[C@@H]2CCCC[C@H]2N1Cc1ccccc1)c1ccccc1	5.52	> 100	> 100	> 100	–	4.16	68.7	6.33	> 100	–
CSc1ncnc2c1cnn2Cc1cn(COCC(O)CO)nn1 (stereo not given)	> 100	> 100	–	> 100	–	> 100	> 100	> 100	44.6	–
CCOC(=O)C(NC(=O)CC)(Nc1ccccc1F)C(F)(F)F (stereo not given)	> 100	> 100	–	–	> 100	> 100	> 100	> 100	> 100	> 100
CCOC(=O)c1c(-c2ccc(OC)cc2)c(C#N)c(=S)n(C2OC(CO)C(O)C(O)C2O)c1C (stereo not given)	> 100	–	> 100	> 100	> 100	> 100	> 100	> 100	> 100	> 100
C[C@@H](CCO)OC1OC(COC(=O)C(C)(C)C)C(OC(=O)C(C)(C)C)C(OC(=O)C(C)(C)C)C1OC(=O)C(C)(C)C (stereo not given in full)	> 100	> 100	–	> 100	> 100	58.1	> 100	> 100	95.7	61
COC(=O)c1ccc2cc(O)ccc2c1	> 100	> 100	> 100	> 100	–	> 100	> 100	> 100	> 100	> 100
CC1=CC(O)CC(C)(C)C1/C=C/C(C)=C/C=C/C(C)=C/C=C/C=C(C)/C=C/C=C(C)/C=C/C1=C(C)CC(O)CC1(C)C (stereo not given)	41	33.1	29	–	> 100	32.7	33.9	66.9	30	33.2
Nn1nnc2ccccc21	> 100	> 100	> 100	> 100	> 100	> 100	> 100	> 100	–	–
O=C(O)Cn1c[n+](NC(=O)Cc2ccccc2)cn1	> 10	> 10	> 10	> 10	> 10	> 10	> 10	> 10	> 10	–
CC1=NN(c2cccc(Cl)c2)C2(C1=Cc1ccc(N(C)C)cc1)C(Cl)C(=O)N2c1nc2ccccc2s1 (stereo not given)	64.7	–	–	> 100	–	> 100	72.3	> 100	43.1	46
COc1ccccc1Cn1c2c(c3cc(O)ccc31)C(=O)c1ccccc1C2=O	–	> 100	> 100	> 100	58.8	> 100	> 100	12	–	14.3
CO[C@H](C)[C@](O)(C(=O)OCC1=CCN2CC[C@@H](O)[C@H]12)C(C)C	> 100	> 100	–	> 100	> 100	> 100	> 100	> 100	> 100	–
Cc1ccc2nc(Nc3ccccc3C)c(Nc3ccccc3C)nc2c1	54.1	–	48.8	69.6	> 96.6	> 63.8	> 94.2	> 100	35.9	> 58.1
O=C(O)C(CS)N=Cc1nc(-c2ccccc2)oc1O (stereo not given)	> 100	–	> 100	> 100	> 100	> 100	–	> 100	> 100	> 100
O=c1n(CCCN2CCOCC2)nc2n1-c1ccc3ccccc3c1SC2	> 100	> 100	–	> 100	> 100	47.7	> 100	> 100	52.3	> 100

Reference: PubChem BioAssay (NCI)
